{"source": "patent US20250281474A1", "about": "“PHARMACEUTICAL COMPOSITION FOR TREATING COGNITIVE DECLINE OR FOR TREATING OVERWEIGHTNESS OR OBESITY” (University of the Ryukyus, priority 2021, published 2025)", "key": {"[1]": {"tested_on": "neurospheres established from NL-G-F(−/−) mice", "assay": "Neurosphere culture from NL-G-F(-/-) mouse hippocampus: Aβ42/Aβ40 EIA and Aβ staining", "format": "cell-based", "source_text": "Biomarkers of Alzheimer's dementia include the Aβ42/Aβ40 ratio of cerebrospinal fluid (CSF) and plasma levels, phosphorylated tau (P-tau) in threonines 181 and 217, and neurofilament lite (NfL) (Curr Opin Neurol 2021 1 266-274). The Aβ42/Aβ40 ratio is considered to be able to predict Aβ accumulation in PET (Doecke J D et al., Neurology 2020). Hippocampus on 17 to 19 days of NL-G-F(−/−) mouse embryonic life was taken out and cultured by a Neurosphere method by Brewer G J et al. (Nat Protoc 2007 2, 1490-1498), and a supernatant was measured by an EIA method using this culture system. The change in the Aβ42/Aβ40 ratio by the perampanel (50 μM/methyl cellulose 4 μL) was analyzed. In 4 μL of a 0.5 w/v % aqueous solution of methyl cellulose 400, 5×10^4 spheres smaller than 50 μm in diameter were cultured in 50 ml Falcon Flask coated with poly-D-lysine/laminin, and Aβ42 and Aβ40 of the supernatant were measured by EIA method on the second day (FIG. 29A) and the fourth day (FIG. 29B) of culture. The solvent was administered 12 hours after seeding."}, "HFD-fed mice": {"tested_on": "HFD-fed mice", "assay": "Five-trial social memory assay, HFD-fed mice", "format": "in vivo, mouse", "settings": "HFD-fed mice with PER treatment", "protocol": "Five-trial social tests were performed as previously described (19). In summary, subject mice with CD, HFD, and HFD with PER treatment were housed individually starting 7 days before the study to establish territory dominance. On the day of the test, a female mouse was presented in the cages of subject male mice, which is a subject (FIG. 2G), and 5 min trials were performed 4 times in succession at 10 min intervals. In the fifth trial, a novel female mouse was presented (FIG. 2G) and the duration of the social investigation was recorded."}, "[2]": {"tested_on": "calcium-permeable AMPA receptor", "assay": "Ca2+ imaging of hippocampal slices of Alzheimer's disease model mice (NL, NLGF)", "format": "cell-based, mouse", "settings": "Alzheimer's disease model (NL and NLGF) mice fed CD"}, "AMPAR (CP-AMPAR)": {"tested_on": "AMPAR (CP-AMPAR)", "assay": "Ca2+ imaging of hippocampal brain slices, AMPA+CTZ application (CP-AMPA reaction), HFD-fed mice", "format": "cell-based", "settings": "slices of HFD-fed mice given PER 5 mg/kg/day orally, 100 μM AMPA + 100 μM CTZ, N=5", "protocol": "First, the intracellular calcium concentration ([Ca^2+]i) was directly measured in an acute brain slice of the hippocampus having a perihippocampal region using a mouse obesity model associated with HFD feeding (composition of diet (7) shown in Table 1) for 12 weeks after weaning to track calcium signaling (FIG. 1A: supplementary data moving image 1) in the hippocampus. HFD-fed mice received […] containing 100 μM CTZ (cyclothiazide; […]) applied to EC (entorhinal cortex), CA1 (cornu ammonis 1), CA2, CA3, and DG (dentate gyrus). The F525 normalized before and after application was compared."}, "NMDAR": {"tested_on": "NMDAR", "assay": "Ca2+ imaging of hippocampal brain slices, NMDA+glycine application (NMDA reaction), HFD-fed mice", "format": "cell-based, mouse", "settings": "slices of HFD-fed mice given PER 5 mg/kg/day orally, 50 μM NMDA + 10 μM glycine, N=5"}, "ob/ob mice": {"tested_on": "ob/ob mice", "assay": "Immunohistochemical analysis (MAP2, GluA1, GluA2, DCX), ob/ob mice", "format": "in vivo, mouse", "settings": "ob/ob mice with PER", "source_text": "Mouse brains were perfusion-fixed with 4% paraformaldehyde, embedded in paraffin, and cut into 4 micrometer thick sections to be used for immunohistochemical analysis of monoclonal antibodies against DCX (E-6 monoclonal, 1:50, Santa Cruz Biotechnology Inc, Dallas, USA), MAP2ab (AP-20 monoclonal, 1:100, SIGMA-ALDRICH, St. Louis, USA), GluA1 (AB1540 polyclonal, 1:100, EMD Millipore Corp., Burlington, USA), and GluA2 (AB 1768-1 polyclonal, 1:5, EMD Millipore Corp., Burlington, USA).\nThe immunostained region in each of the expression regions of MAP2, GluA1, and GluA2 was acquired using a ZVI format AxioVision (Carl Zeiss, Germany) microscope (objective lens 20×). Generation of data image processing with image segmentation was performed using machine learning with ZEN Intelliesis software. 1000 or more cells were examined in each group. One-way variance analysis was used for testing variance among the three groups excluding data of 3SD or higher. Then, the following number of samples was used.\nSimilar to the HFD mouse model, ob/ob mice had reduced dendritic arbors integrity as determined by MAP2 staining (FIG. 12). […] In addition, the maturation of the protrusions of DCX-positive cells progressed by treatment with PER for 12 weeks (FIG. 14)."}}, "data": [{"smiles": "N#Cc1ccccc1-c1cc(-c2ccccn2)cn(-c2ccccc2)c1=O", "note": "[PER, 3-(2-cyanophenyl)-5-(2-pyridyl)-1-phenyl-1,2-dihydropyridine-2-one]", "values": [{"measurement": "Aβ staining of the culture", "setting": "[1]; fourth day of culture, formic acid treatment", "value": "decrease in Aβ"}, {"measurement": "Aβ42/Aβ40 ratio of the culture supernatant (EIA)", "setting": "[1]; perampanel 50 μM/methyl cellulose 4 μL, second and fourth day of culture", "value": "significantly increased"}, {"measurement": "social memory (five-trial social interaction test)", "setting": "HFD-fed mice", "value": "restored social memory disturbance"}, {"measurement": "inhibition of NMDAR by the calcium-permeable AMPA receptor", "setting": "[2]", "value": "can be eliminated"}, {"measurement": "CP-AMPA reaction CA1 (maximum value of NF525)", "setting": "AMPAR (CP-AMPAR); CA1", "value": "1.00 ± 0.01 (N = 5)"}, {"measurement": "CP-AMPA reaction CA2 (maximum value of NF525)", "setting": "AMPAR (CP-AMPAR); CA2", "value": "1.00 ± 0.02 (N = 5)"}, {"measurement": "CP-AMPA reaction CA3 (maximum value of NF525)", "setting": "AMPAR (CP-AMPAR); CA3", "value": "1.00 ± 0.01 (N = 5)"}, {"measurement": "CP-AMPA reaction DG (maximum value of NF525)", "setting": "AMPAR (CP-AMPAR); DG", "value": "1.02 ± 0.01 (N = 5)"}, {"measurement": "CP-AMPA reaction EC (maximum value of NF525)", "setting": "AMPAR (CP-AMPAR); EC", "value": "1.05 ± 0.05 (N = 5)"}, {"measurement": "NMDA reaction CA1 (maximum value of NF525)", "setting": "NMDAR; CA1", "value": "1.20 ± 0.08 (N = 5)"}, {"measurement": "NMDA reaction CA2 (maximum value of NF525)", "setting": "NMDAR; CA2", "value": "1.20 ± 0.09 (N = 5)"}, {"measurement": "NMDA reaction CA3 (maximum value of NF525)", "setting": "NMDAR; CA3", "value": "1.12 ± 0.04 (N = 5)"}, {"measurement": "NMDA reaction DG (maximum value of NF525)", "setting": "NMDAR; DG", "value": "1.17 ± 0.04 (N = 5)"}, {"measurement": "NMDA reaction EC (maximum value of NF525)", "setting": "NMDAR; EC", "value": "1.16 ± 0.06 (N = 5)"}, {"measurement": "GluA1 expression in CA1 (immunoreactive regions)", "setting": "ob/ob mice", "value": "restored"}, {"measurement": "ratio of GluA2/GluA1 (immunoreactive regions)", "setting": "ob/ob mice", "value": "restored"}]}]}
